Assay type in all cases: cell-based, human
Test [1] deals with NPBSCs. Briefly: Neural rosette formation by NPBSC colonies cultured with FGF2. Here is the method: (§1) For confocal microscopy, cells were plated on Matrigel-coated glass coverslips. Cultures were fixed for 20 minutes with 4% paraformaldehyde (Electron Microscopy Sciences) in PBS (Invitrogen) and washed twice with PBS. Permeabilization and blocking was done in one step using 0.1% Triton X-100 (Sigma Aldrich), 10% fetal calf serum (PAA) and 1% BSA in PBS for 45 minutes. Plates or coverslips were washed once with 0.1% BSA in PBS and the primary antibodies applied overnight at 4° C. in 1% BSA in PBS. The next day, following one washing step with 0.1% BSA in PBS, secondary antibodies were applied for one hour at room temperature in 1% BSA in PBS. Finally, cells were washed three times with 0.1% BSA in PBS-T (0.05% Tween 20), including a Hoechst counterstaining for nuclei in the second washing step. Cells were mounted in Vectashield mounting medium (Vector Labs) and imaged on a Zeiss PALM/Axiovert fluorescence microscope or a Zeiss LSM700 confocal microscope. If necessary, images were merged using ImageJ and Adobe Photoshop.
We tested this by culturing NPBSC colonies in the presence of FGF2, which has previously been reported to induce neural rosette formation by hEBs that have been plated (Zhang et al., 2001). […] For further characterization, we immunostained for ZO-1, which is expressed by neural rosettes but spatially localized to the apical surface (Elkabetz et al., 2008).

In test [2] the test system is differentiating hEBs. Briefly: NPBSC derivation from EBs with CHIR and/or PMA. To be noted: EBs treated with the indicated small molecules; morphology, neural markers. The method, then:
For generation of NPBSCs from pluripotent stem cells, colonies were detached from the MEFs three to four days after splitting, using 2 mg/ml collagenase IV (Invitrogen). Colony pieces were collected by sedimentation and resuspended in hESC medium (without FGF2) supplemented with 10 μM SB-431542 (Ascent Scientific), 1 μM dorsomorphin (Tocris) for neural induction, as well as 3 μM CHIR 99021 (Axon Medchem), 0.5 μM PMA (Alexis) and cultured in petri dishes. Medium was replaced on day two by N2B27 supplemented with the same small molecule supplements. N2B27 consisted of DMEM-F12 (Invitrogen)/Neurobasal (Invitrogen) 50:50 with 1:200 N2 supplement (Invitrogen), 1:100 B27 supplement lacking vitamin A (Invitrogen) with 1% Penicillin/Streptomycin/Glutamine (PAA). On day four, SB-431542 and dorsomorphin were withdrawn and 150 μM Ascorbic Acid (AA; Sigma) was added to the medium. […] BD Biosciences) 12 well plates at a density of about ten to fifteen per well in NPBSC expansion medium (N2B27 with CHIR, PMA and AA). For coating, Matrigel was diluted to a final dilution of 1:100 in Knockout DMEM (Invitrogen) prior to coat 500 μl per well of a 12 well plate over night. Coated plates were wrapped with Parafilm and kept in the fridge for up to one month. The first split was performed at a 1:5 to 1:10 ratio on day 2 to 4 after plating. All the remaining splitting ratios were 1:10. […]

Test [3] concerns NPBSCs. Briefly: Dorsoventral patterning of NPBSCs by CHIR and PMA (qRT-PCR, immunostaining). Here is the method:
Total RNA was isolated from cultured cells using RNeasy columns (Qiagen), according to manufacturer instructions, including an on-column DNase digest. Isolated RNA was reverse-transcribed using M-MLV Reverse Transcriptase (USB) with oligo-[…] primers (Metabion) for 1 h at 42° C. qRT-PCR was performed on an Applied Biosystems 7500 Real-Time PCR system with SYBR green PCR master mix (ABI) and 56 ng of original RNA equivalents per 20 μl PCR reaction. Cycling conditions were 40 cycles of 15 s, 95° C./60 s 60° C. Relative expression levels were calculated using the […] method, normalized to biological reference samples and using GAPDH and ACTB as housekeeping genes. Next, we sought to determine if NPBSCs remain competent for WNT and SHH mediated patterning of neural fate commitment. […] SHH signaling opposes dorsal neural fates and specifies ventral fates (Ulloa and Briscoe, 2007). […] Therefore, we conclude that NPBSCs are receptive to WNT and SHH induced dorsoventral patterning of neural fate specification. […] As such, the upregulation of these markers by NPBSCs could also be because of assuming a neural plate border and/or neural crest identity. To test this possibility, we assessed the responsiveness of the CNS progenitor marker SOX1 to SHH and WNT signaling. […] The inhibition by CHIR is the same that induced MSX1 and PAX3 upregulation.

Test [4] concerns NPBSCs. Briefly: Directed differentiation of NPBSCs into PNS neurons. Here is the method:
For generation of PNS neurons, NPBSCs two days after splitting were switched to N2B27 with only CHIR for two days. Afterward, 10 ng/ml BMP4 (R&D Systems) was added for eight days. Splitting and maturation was performed as described for the generation of motor neurons. For astrocyte and mesenchymal neural crest differentiation, NPBSCs were cultured with DMEM (PAA) with 10% fetal calf serum (PAA) and 1% Pen/Strep/Glutamin (PAA), beginning two days after splitting. Cultures were split twice at a 1:3 ratio when confluent using trypsin (Invitrogen).
as §1
Total RNA was isolated from cultured cells using RNeasy columns (Qiagen), according to manufacturer instructions, including an on-column DNase digest. […] Relative expression levels were calculated using the 2^−2Δ method, normalized to biological reference samples and using GAPDH and ACTB as housekeeping genes. […]

Regarding “FGF2: basic fibroblast growth factor, a member of the fibroblast growth factor family”, the neural rosette formation result in test [1] (NPBSC colonies cultured with FGF2 for 2 days) was “numerous neural rosettes were formed”. The ZO-1 expression localization entry in test [1] (immunostaining after FGF2 treatment) is “re-oriented to the apical surface of the rosettes”.

For the molecule `Cc1cnc(-c2cnc(NCCNc3ccc(C#N)cn3)nc2-c2ccc(Cl)cc2Cl)[nH]1` [CHIR, 6-[[2-[[4-(2,4-dichlorophenyl)-5-(5-methyl-1H-imidazol-2-yl)-2-pyrimidinyl]amino]ethyl]amino]-3-pyridinecarbonitrile], the “outcome of NPBSC derivation from EBs” value in test [2] is given as “produced many non-neural cells”. The SOX1 expression result in test [3] (6 days) is “inhibited”. The “expression of dorsal neural progenitor markers MSX1 and PAX3” value in test [3] (6 days culture) was “upregulated”.

B1: BMP4: activator of the BMP signalling pathway (Gene Symbol BMP4), from R&D Systems (protein, UniProt P12644 293-408, looked up)
Bone morphogenetic protein 4: SPKHHSQRARKKNKNCRRHSLYVDFSDVGWNDWIVAPPGYQAFYCHGDCPFPLADHLNSTNHAIVQTLVNSVNSSIPKACCVPTELSAISMLYLDEYDKVVLKNYQEMVVEGCGCR
On to B1, for which, in test [4] (8 days BMP4), the “PERIPHERIN immunostaining of neurons” value is reported as “majority of the neurons were PERIPHERIN-positive”. In addition, in test [4] (8 days treatment), the effect on neurogenesis result is reported as “did not inhibit neurogenesis”. In test [4] (qRT-PCR, 8 days of treatment), the “PERIPHERIN and BRN3A expression” value was “upregulated”.

The record behind these values is patent US10711244B2, “Mammalian neural plate border stem cells capable of forming neural tube and neural crest cell lineages including central and peripheral neurons” (Max-Planck-Gesellschaft zur Förderung der Wissenschaften …, priority 2012, dated 2020).
